This data set in a line: Solubility test (shaken 30 min to saturation, content measured by HPLC). The format is physicochemical. The settings on record: shaken for 30min to saturation; for piceatannol 3'-O-glucoside solubility, 0.9% aqueous solution of Sodium chloride: in 0.9wt% aqueous solution of sodium chloride. On the procedure: Appropriate amounts of samples 1 to 4 and raw material sample were taken. Water, 0.9wt% aqueous solution of sodium chloride were added, respectively, and shaken for 30min, respectively, to dissolve the sample to saturation. The above solutions were taken and subjected to HPLC to measure the content of piceatannol 3'-O-glucoside in the solutions. Table 1. Comparison of the results of piceatannol 3'-O-glucoside solubility (mg/ml)

This note sets out measurements from EP3287466B1, “AMORPHOUS PICEATANNOL 3'-O-GLUCOSIDE AND PREPARATION METHOD THEREOF” (KPC Pharmaceuticals, Inc., priority 2015, dated 2016).

In brackets after ≈: the same amount, converted by molar mass.

Usually solubility stands for the dissolved amount per volume that the medium holds.

For `OC[C@H]1O[C@@H](Oc2cc(/C=C/c3cc(O)cc(O)c3)ccc2O)[C@H](O)[C@@H](O)[C@@H]1O` [Raw material sample, piceatannol 3'-O-glucoside], for the setting “30 min”, the “piceatannol 3'-O-glucoside solubility, 0.9% aqueous solution of Sodium chloride” value is 4.67 mg/mL.
For `OC[C@H]1O[C@@H](Oc2cc(/C=C/c3cc(O)cc(O)c3)ccc2O)[C@H](O)[C@@H](O)[C@@H]1O` [Sample 1, piceatannol 3'-O-glucoside], the “piceatannol 3'-O-glucoside solubility, 0.9% aqueous solution of Sodium chloride” value (30 min) was determined as 14.36 mg/mL.
Same read-out and setting: the same measure for `OC[C@H]1O[C@@H](Oc2cc(/C=C/c3cc(O)cc(O)c3)ccc2O)[C@H](O)[C@@H](O)[C@@H]1O` [Sample 2, piceatannol 3'-O-glucoside]: 14.19 mg/mL.
In the case of `OC[C@H]1O[C@@H](Oc2cc(/C=C/c3cc(O)cc(O)c3)ccc2O)[C@H](O)[C@@H](O)[C@@H]1O` [Sample 3, piceatannol 3'-O-glucoside], the solubility at 0.5 h (water, in water, read-out: piceatannol 3'-O-glucoside solubility, Water) was 15.2 mg/mL (≈ 37.5 mM).
Turning to `OC[C@H]1O[C@@H](Oc2cc(/C=C/c3cc(O)cc(O)c3)ccc2O)[C@H](O)[C@@H](O)[C@@H]1O` [Sample 4, piceatannol 3'-O-glucoside], the “piceatannol 3'-O-glucoside solubility, 0.9% aqueous solution of Sodium chloride” value (30 min) is 14.31 mg/mL. Besides, the “piceatannol 3'-O-glucoside solubility, Water” value (in water, 30 min) came to 14.45 mg/mL.
